According to patent US10889566B2, “Derivatives and composition of quinoline and naphthyridine” (CHULABHORN FOUNDATION, priority 2017, dated 2021):
In brackets after ≈: the same amount, converted by molar mass. Counter-ions that a name gives are not always drawn.

Columns and labels:
[1] = tested on: acute lymphoblastic leukemia (MOLT-3); assay: cells; details: for IC50 (μg/mL) MOLT-3: MOLT-3 (Acute lymphoblastic leukemia), mean ± standard error, triplicate
Experimental: (§1) Background control wells contained the same volume of the complete culture medium. […] Samples at various concentrations were added to the microplate, which was incubated for another 48 h. Cell viability was determined by staining with MTT assay [3(4,5-dimethylthiazol-2-yl)-2-5diphenyl tetrazolium bromide (Sigma-Aldrich, St. Louis, Mo., USA)]. The reagent was dissolved in phosphate buffered saline at 5 mg/mL and filtered to sterilize and remove the small amount of insoluble residue present in some batches of MTT. […] Subsequently, dimethyl sulfoxide (Merck, Germany) (100 μL) was added to dissolve the resulting formazan by using sonication. The plates were read on a microplate reader (Molecular Devices, CA, USA). OD was measured at testing wavelength of 550 nm and reference wavelength of 650 nm.
XTT assay (3′-[1-[(phenylamino)-carbonyl]-3,4-tetrazolium]-bis(4-methoxy-6-nitro)benzene-sulfonic acid hydrate) for suspension cells was performed for acute lymphoblastic leukemia (MOLT-3).

hepatocarcinoma = assay: cells; details: for IC50 (μg/mL) HepG2: HepG2 (Hepatocarcinoma), mean ± standard error, triplicate; for IC50: Homo sapiens, HepG2, read-out: IC50 (μg/mL) HepG2
Experimental: as §1

lung carcinoma = assay: cells; details: for IC50 (μg/mL) A549: A549 (Lung carcinoma), mean ± standard error, triplicate
Experimental: as §1

cholangiocarcinoma = assay: cells; details: for IC50 (μg/mL) HuCCA-1: HuCCA-1 (Cholangiocarcinoma), mean ± standard error, triplicate
Experimental: as §1

HIV-1 RT = HIV-1 RT (Human immunodeficiency virus type 1 group M subtype B, UniProt P04585); assay: In vitro HIV-1 reverse transcriptase (HIV-1 RT) kit assay; type: biochemical; details: for inhibition at 1 µM: read-out: Inhibition rate (%) (HIV-RT kit assay) (1 μM)
Experimental: In Vitro HIV-1 Reverse Transcriptase (HIV-1 RT) Kit Assay
The HIV-RT inhibition assay was performed using an RT assay kit (Roche) according to the protocol of the kit. […] After 1 h of incubation at 37° C., the reaction mixture was transferred to a streptavidine-coated microtiter plate (MTP). Biotin-labeled dNTPs were incorporated in the template, because of the activity of RT bound to steptavidine. The unbound dNTPs were washed with wash buffer, and antidigoxigenin-peroxidase (anti-DIG-POD) was added to the MTP. The digoxigenin-labeled dNTPs incorporated in the template was bound to the anti-DIG-POD antibody. The unbound anti-DIG-POD was washed, and the peroxide substrate (ABST) was added to the MTP. A colored reaction product was produced during the cleavage of the substrate catalyses with a peroxide enzyme. […] The resulting color intensity was directly proportional to the actual RT activity. The percentage inhibitory activity of the RT inhibitors was calculated by comparing it to that of the sample without an inhibitor.

[2] = tested on: BxPC-3 pancreatic cancer cells; details: read-out: in vitro EC50; cited from earlier work

| SMILES | IC50 (μg/mL) MOLT-3 [1] [µg/mL] | IC50 (μg/mL) HepG2 (hepatocarcinoma) [µg/mL] | IC50 (μg/mL) A549 (lung carcinoma) [µg/mL] | IC50 (μg/mL) HuCCA-1 (cholangiocarcinoma) [µg/mL] | Inhibition rate (%) (HIV-RT kit assay) (1 μM) (HIV-1 RT) | also measured |
| --- | --- | --- | --- | --- | --- | --- |
| Cc1cc(C=O)cc(C)c1Oc1cc(Oc2c(C)cc(C=O)cc2C)c2ccccc2n1 [Compound 1] | 2.62 ± 0.30 (≈ 6.16 µM) | 21.55 ± 5.23 (≈ 50.6 µM) | 16.37 ± 0.56 (≈ 38.5 µM) | 4.71 ± 0.30 (≈ 11.1 µM) | 42.08 |  |
| Cc1cc(C=O)cc(C)c1Oc1cc(Nc2ccc(C#N)cn2)nc2ccccc12 [Compound 4] | 4.98 ± 0.43 (≈ 12.6 µM) | 36.53 ± 4.65 (≈ 92.6 µM) | 42.44 ± 0.48 (≈ 108 µM) | 49.5 ± 0.71 (≈ 125 µM) | 62.23 |  |
| Cc1cc(C#N)cc(C)c1Oc1cc(Oc2c(C)cc(C#N)cc2C)c2ccccc2n1 [Compound 5] | ≥50 | 38.67 ± 2.87 (≈ 92.2 µM) | 23.28 ± 2.40 (≈ 55.5 µM) | 35.02 ± 4.65 (≈ 83.5 µM) | 40.31 |  |
| Cc1cc(C#N)cc(C)c1Oc1cc(Nc2ccc(C#N)cc2)nc2ccccc12 [Compound 6] | 19.04 ± 16.02 (≈ 48.8 µM) | ≥50 | ≥50 | ≥50 | 47.16 |  |
| N#Cc1ccc(Nc2cc(Oc3ccc(C#N)cc3)c3ccccc3n2)cc1 [Compound 7] | ≥50 | ≥50 | ≥50 | ≥50 | 39.71 |  |
| N#Cc1ccc(Oc2cc(Nc3ccc(C#N)cn3)nc3ccccc23)cc1 [Compound 8] | 5.12 ± 0.41 (≈ 14.1 µM) | 39.96 ± 0.26 (≈ 110 µM) | 5.09 ± 0.81 (≈ 14 µM) | 8.31 ± 0.33 (≈ 22.9 µM) | 27.61 |  |
| O=C1Nc2ccc(Cl)cc2[C@@](C#CC2CC2)(C(F)(F)F)O1 [EFV, efavirenz] |  |  |  |  |  | EC50 [2]: 315 µM |
| Cc1ccnc2c1NC(=O)c1cccnc1N2C1CC1 [NVP, nevirapine, reference compound] |  |  |  |  |  | inhibition at 1 µM (HIV-1 RT): 55.6% |
| Cc1cc(/C=C/C#N)cc(C)c1Nc1ccnc(Nc2ccc(C#N)cc2)n1 [TMC278, rilpivirine, reference compound] |  |  |  |  |  | inhibition at 1 µM (HIV-1 RT): 96.5% |
| COc1cccc2c1C(=O)c1c(O)c3c(c(O)c1C2=O)C[C@@](O)(C(=O)CO)C[C@@H]3O[C@H]1C[C@H](N)[C@H](O)[C@H](C)O1 [doxorubicin hydrochloride, reference compound] |  |  |  |  |  | IC50 (hepatocarcinoma): 0.23 ± 0.02 µg/mL; IC50 (lung carcinoma; Homo sapiens, A549, read-out: IC50 (μg/mL) A549): 0.19 ± 0.01 µg/mL; IC50 (cholangiocarcinoma; Homo sapiens, HuCC-A1, read-out: IC50 (μg/mL) HuCCA-1): 0.89 ± 0.04 µg/mL |
| COc1cc([C@@H]2c3cc4c(cc3[C@@H](O[C@@H]3O[C@@H]5CO[C@@H](C)O[C@H]5[C@H](O)[C@H]3O)[C@H]3COC(=O)[C@H]23)OCO4)cc(OC)c1O [etoposide, reference compound] |  |  |  |  |  | IC50 ([1]; Homo sapiens, MOLT-3, read-out: IC50 (μg/mL) MOLT-3): 0.048 ± 0.007 µg/mL (≈ 0.0816 µM); IC50 (hepatocarcinoma): 21.1 ± 0.7 µg/mL (≈ 35.9 µM) |
